Assay results published in ChEMBL document CHEMBL6115034, “Pseudonatural Flavonols as Novel Copper Ionophores for NAFLD Intervention via Synergistic Copper Delivery and Flavonoid Activity” (J Med Chem, 2025).
The source made the active and inactive calls. The calls are words filed in the database; no cut-off is given here.

Assays:
[1] = Induction of copper transporting activity in human HeLa cells assessed as fold increase in intracellular copper levels at 2 uM incubated for 4 hrs by ICP-MS analysis; assay type: functional
[2] = Stability of the compound in cell culture medium containing 10% fetal bovine serum in presence of cysteine by UV-Vis spectrophotometer analysis; assay type: physicochemical, cell-free; settings: cattle
[3] = Stability of the compound in cell culture medium containing 10% fetal bovine serum in presence of EDTA by UV-Vis spectrophotometer analysis; assay type: physicochemical, cell-free; settings: cattle
[4] = Photophysical property of the compound assessed as fluorescence quantum yield; assay type: physicochemical
[5] = system: HeLa; experiment: Induction of copper transporting activity in human HeLa cells assessed as increase in intracellular copper levels at 0.02 to 20 uM by ICP-MS analysis; assay type: functional, cell-based; settings: dose 0.02-20 µM, time <= 24.0 hrs
[6] = system: HepG2; experiment: Cytotoxicity against human HepG2 cells assessed as cell viability at 0.1 to 5 uM measured at 24 hrs by MTT assay; assay type: functional, cell-based; settings: dose 0.1-5 µM
[7] = system: Hepatocyte; experiment: Cytotoxicity against mouse Hepatocyte assessed as cell viability at 0.1 to 5 uM measured at 24 hrs by MTT assay; assay type: toxicity, cell-based; settings: hepatocytes, dose 0.1-5 µM
[8] = system: HepG2; experiment: Cytotoxicity against human HepG2 cells assessed as cell viability at 0.1 to 5 uM compound administrated as copper complex measured at 24 hrs by MTT assay; assay type: functional, cell-based; settings: dose 0.1-5 µM
[9] = system: Hepatocyte; experiment: Cytotoxicity against mouse Hepatocyte assessed as cell viability at 0.1 to 5 uM compound administrated as copper complex measured at 24 hrs by MTT assay; assay type: toxicity, cell-based; settings: hepatocytes, dose 0.1-5 µM
[10] = system: HepG2; experiment: Anti-NAFLD activity in palmitic acid human HepG2 NAFLD cell model assessed as increase in ROS level at 5 uM compound administrated as copper complex measured at 24 hrs by DCFH-DA probe based flow cytometry analysis; assay type: functional
[11] = system: HepG2; experiment: Anti-NAFLD activity in palmitic acid human HepG2 NAFLD cell model assessed as decrease in lipid droplet level at 5 uM measured at 24 hrs by Oil Red O staining based assay relative to control; assay type: functional; set-up: scale not given: the % may be the effect or the level left
[12] = system: HepG2; experiment: Anti-NAFLD activity in palmitic acid human HepG2 NAFLD cell model assessed as increase in lipid droplet level at 5 uM compound administrated as copper complex measured at 24 hrs by Oil Red O staining based assay relative to control; assay type: functional
[13] = system: HepG2; experiment: Anti-NAFLD activity in palmitic acid human HepG2 NAFLD cell model assessed as effect on CYP4F11 expression at 0.5 uM incubated for 24 hrs in presence of CuCl2 by mRNA sequencing analysis; assay type: functional, cell-based
[14] = system: HepG2; experiment: Anti-NAFLD activity in palmitic acid human HepG2 NAFLD cell model assessed as effect on HMOX1 expression at 0.5 uM incubated for 24 hrs in presence of CuCl2 by mRNA sequencing analysis; assay type: functional, cell-based
[15] = system: HepG2; experiment: Anti-NAFLD activity in palmitic acid human HepG2 NAFLD cell model assessed as effect on SLC48A1 expression at 0.5 uM incubated for 24 hrs in presence of CuCl2 by mRNA sequencing analysis; assay type: functional, cell-based
[16] = system: HepG2; experiment: Anti-NAFLD activity in palmitic acid human HepG2 NAFLD cell model assessed as upregulation of CYP4F12 expression at 0.5 uM incubated for 24 hrs in presence of CuCl2 by mRNA sequencing analysis; assay type: functional, cell-based
[17] = system: HepG2; experiment: Anti-NAFLD activity in palmitic acid human HepG2 NAFLD cell model assessed as upregulation of CYP4F11 expression at 0.5 uM incubated for 24 hrs in presence of CuCl2 by mRNA sequencing analysis; assay type: functional, cell-based
[18] = system: HepG2; experiment: Anti-NAFLD activity in palmitic acid human HepG2 NAFLD cell model assessed as upregulation of POR expression at 0.5 uM incubated for 24 hrs in presence of CuCl2 by mRNA sequencing analysis; assay type: functional, cell-based
[19] = system: HepG2; experiment: Anti-NAFLD activity in palmitic acid human HepG2 NAFLD cell model assessed as upregulation of CAT expression at 0.5 uM incubated for 24 hrs in presence of CuCl2 by mRNA sequencing analysis; assay type: functional, cell-based
[20] = system: HepG2; experiment: Anti-NAFLD activity in palmitic acid human HepG2 NAFLD cell model assessed as upregulation of NQO1 expression at 0.5 uM incubated for 24 hrs in presence of CuCl2 by mRNA sequencing analysis; assay type: functional, cell-based
[21] = system: HepG2; experiment: Anti-NAFLD activity in palmitic acid human HepG2 NAFLD cell model assessed as downregulation of IL6 expression at 0.5 uM incubated for 24 hrs in presence of CuCl2 by mRNA sequencing analysis; assay type: functional, cell-based
[22] = system: HepG2; experiment: Anti-NAFLD activity in palmitic acid human HepG2 NAFLD cell model assessed as downregulation of STAT1 expression at 0.5 uM incubated for 24 hrs in presence of CuCl2 by mRNA sequencing analysis; assay type: functional, cell-based
[23] = Toxicity in male C57BL/6 mouse assessed as change in body weight at 125 mg/kg, po compound administrated as copper complex measured for 10 weeks; assay type: organism-based; settings: in vivo, 1680 h
[24] = system: Mus musculus; experiment: Anti-NAFLD activity in high-fat diet-induced male C57BL/6J mouse model assessed as increase in lipid droplets accumulation in liver at 125 mg/kg, po compound administrated as copper complex measured for 10 weeks by oil red O staining based analysis; assay type: functional, organism-based
[25] = Toxicity in male C57BL/6 mouse assessed as lung lesion at 125 mg/kg, po compound administrated as copper complex measured for 10 weeks; assay type: organism-based; settings: in vivo, 1680 h
[26] = Toxicity in male C57BL/6 mouse assessed as spleen lesion at 125 mg/kg, po compound administrated as copper complex measured for 10 weeks; assay type: organism-based; settings: in vivo, 1680 h
[27] = system: Mus musculus; experiment: Anti-NAFLD activity in high-fat diet-induced male C57BL/6J mouse model assessed as increase in copper level in serum at 125 mg/kg, po compound administrated as copper complex measured for 10 weeks by ICP-MS analysis; assay type: functional, organism-based
[28] = system: Mus musculus; experiment: Anti-NAFLD activity in high-fat diet-induced male C57BL/6J mouse model assessed as increase in liver weight at 125 mg/kg, po compound administrated as copper complex measured for 10 weeks […]; assay type: functional, organism-based
[29] = system: Mus musculus; experiment: Anti-NAFLD activity in high-fat diet-induced male C57BL/6J mouse model assessed as reduction in serum NEFA level at 125 mg/kg, po compound administrated as copper complex measured for 10 weeks; assay type: functional; set-up: scale not given: the % may be the effect or the level left
[30] = system: Mus musculus; experiment: Anti-NAFLD activity in high-fat diet-induced male C57BL/6J mouse model assessed as reduction in IL-6 level in liver at 125 mg/kg, po compound administrated as copper complex measured for 10 weeks; assay type: functional, organism-based
[31] = system: Mus musculus; experiment: Anti-NAFLD activity in high-fat diet-induced male C57BL/6J mouse model assessed as increase in lactate level at 125 mg/kg, po compound administrated as copper complex measured for 10 weeks by LC-MS/MS analysis; assay type: functional, organism-based
[32] = system: Mus musculus; experiment: Anti-NAFLD activity in high-fat diet-induced male C57BL/6J mouse model assessed as increase in Ru5P level in liver at 125 mg/kg, po compound administrated as copper complex measured for 10 weeks by LC-MS/MS analysis; assay type: functional, organism-based

## O=c1c(O)c(-c2ccc3cccc(O)c3n2)oc2ccccc12
[1]
  fold change (FC): ~5
[2]
  Stability: Stable
[3]
  Stability: Stable
[4]
  Activity: 0.199
[5]
  Activity: Time-dependent-effect
[6]
  Activity: Active
[7]
  Activity: Non-toxic
[8]
  Activity: Active
[9]
  Activity: Non-toxic
[10]
  Activity: Active
[11]
  Activity: 61%
[12]
  Activity: 31%
[13]
  Activity: Active
[14]
  Activity: Active
[15]
  Activity: Active
[16]
  Activity: Active
[17]
  Activity: Active
[18]
  Activity: Active
[19]
  Activity: Active
[20]
  Activity: Active
[21]
  Activity: Active
[22]
  Activity: Active
[23]
  Activity: Non-toxic
[24]
  Activity: Active
[25]
  Activity: Non-toxic
[26]
  Activity: Non-toxic
[27]
  Activity: Active
[28]
  Activity: Active
[29]
  Activity: 52%
[30]
  Activity: Active
[31]
  Activity: Active
[32]
  Activity: Active
